Test results from US8557272B2, “Device for local and/or regional delivery employing liquid formulations of therapeutic agents” (Cordis Corporation, priority 2004, dated 2013).

Experiments:
[1] = Drug concentration in liquid formulations (liquid chromatography, HPLC assay); assay type: physicochemical
[2] = tested on: human coronary artery smooth muscle cells; assay: Anti-proliferative activity in non-synchronized cultured human coronary artery smooth muscle cells stimulated with two percent fetal bovine serum; assay type: cell-based; conditions: agent added to cells treated with rapamycin
From the text: The multiple curves represent various concentrations of mycophenolic acid ranging from zero to one thousand nanomolar concentrations.
FIG. 58 illustrates, in graphical format, the anti-proliferative activity of cladribine in non-synchronized cultured human coronary artery smooth muscle cells stimulated with two percent fetal bovine serum.
The multiple curves represent various concentrations of cladribine ranging from zero to nine hundred nanomolar concentrations.

[3] = tested on: human coronary artery smooth muscle cells; assay: Antiproliferative effects of PX867 on cultured human coronary artery smooth muscle cells; assay type: cell-based
From the text: A PI3 kinase inhibitor can affect restinosis when administered by local or systemic delivery alone or in combination with sirolimus. FIGS. 87 and 88 illustrate the antiproliferative effects of PX867 on cultured human coronary artery smooth muscle cells alone (FIG. 87) or in combination with sirolimus (FIG. 88). […] Curve 8702 illustrates the percent inhibition for various concentrations. In FIG. 88, the six curves 8802, 8804, 8806, 8808, 8810 and 8812 represent various concentrations of PX867 with various concentrations of sirolimus. […] More specifically, curve 8812 illustrates the percent inhibition for a 240 nM PX-867 concentration. […] This may be compared to curve 8804 which represents a 15 nM PX-867 concentration. As one can see, the percent inhibition increases as the concentration of sirolimus increases. Accordingly, a potent PI3 kinase inhibitor, such as PX-867, can improve the inhibition of coronary artery smooth muscle cell proliferation either as a stand alone treatment or via combination with another restenotic agent, such as sirolimus.

[4] = tested on: human coronary artery smooth muscle cells; assay: Anti-proliferative activity in synchronized cultured human coronary artery smooth muscle cells stimulated with two percent fetal bovine serum; assay type: cell-based; conditions: for effect of the added agent on the anti-proliferative rapamycin dose response curve: agent added to cells treated with rapamycin
From the text: (§1) The multiple curves represent various concentrations of topotecan ranging from zero to three hundred nanomolar concentrations.
(§2) The multiple curves represent various concentrations of etoposide ranging from zero to eight hundred nanomolar concentrations.
The multiple curves represent various concentrations of Panzem® ranging from zero to 100 micromolar concentrations.

[5] = tested on: human coronary artery smooth muscle cell; assay: MTS assay of Panzem®; assay type: cell-based; conditions: concentrations up to 30,000.00 nanomolar
From the text: Typically, a control is utilized to determine baseline toxicity.

[6] = Porcine drug elution PK study of the dual drug eluting coating; assay type: in vivo; conditions: after eight (8) days of implantation; single-layer configuration of FIG. 83
From the text: Another critical parameter for the performance of the thrombus resistance of a device coated with cilostazol is the duration of the drug release from the coating. This is of particular significance in the two weeks after device implantation. In the porcine drug elution PK studies of the dual drug eluting coating, both cilostazol and sirolius were slowly released from the coating, resulting in a sustained drug release profile. The purpose of the porcine PK study is to assess the local pharmacokinetics of a drug eluting stent at a given implantation time. Normally three stents are implanted in three different coronary arteries in a pig for a given time point and then retrieved for total drug recovery analysis. The stents are retrieved at predetermined time points; namely, 1, 3 and 8 days. The stents are extracted and the total amount of drug remaining on the stents is determined by analysis utilizing HPLC (high performance liquid chromatography) for total drug amount. The difference between the original amount of drug on the stent and the amount of drug retrieved at a given time represents the amount of drug released in that period. The continuous release of drug into surrounding arterial tissue is what prevents the neointimal growth and restenosis in the coronary artery. A normal plot represents the percentage of total drug released (%, y-axis) vs. time of implantation (day, x-axis). […]

[7] = In vitro release of sirolimus and cilostazol from stent coating; assay type: physicochemical; conditions: single-layer configuration of FIG. 83
[8] = Cell viability assay (cytotoxicity); assay type: cell-based
From the text: as §1, §2

[9] = Description: The concentrations are determined by liquid chromatography and are presented as weight by volume figures.
In making the first formulation, 100 mg of paclitaxel is added to 400 μl of ethanol in a pre-weighed 20 ml scintillation vial. The mixture of paclitaxel and ethanol is vortexed and heated in a 60 degree C. bath for ten minutes. Once the drug is completely solubilized, 20 ml of PEG 400 is then added to make the final paclitaxel concentration 5 mg/ml. […] In a separate experiment, a series of 20 ml scintillation vials containing Vitamin E TPGS are heated or warmed up in a 50 degree C. water bath for ten minutes. Concurrently, distilled water is also warmed in a 50 degree C. water bath. Once the Vitamin E TPGS was melted in each vial, the distilled water is added into the Vitamin E TPGS vials and vortexed for one minute and left to stand in the water bath for two hours. The final concentrations of Vitamin E TPGS in water were one, five and fifteen percent. The paclitaxel stock solution (5 mg/ml) described herein was then mixed with the Vitamin E TPGS solutions to make the final paclitaxel formulations.

[10] = tested on: human coronary artery smooth muscle cell; assay: Inhibition of human coronary artery smooth muscle cell proliferation by trichostatin A, cell culture; assay type: cell-based; conditions: in vitro cell culture; read-out: anti-proliferative IC50
From the text: FIG. 51 is a graph of the inhibition of coronary artery smooth muscle cells by trichostatin A in a cell culture study.

tumor cell lines = conditions: Woo et al. 2002; cited from earlier work

SMILES: CO[C@H]1C[C@@H]2CC[C@@H](C)[C@@](O)(O2)C(=O)C(=O)N2CCCC[C@H]2C(=O)O[C@H]([C@H](C)C[C@@H]2CC[C@@H](OC(=O)C(C)(CO)CO)[C@H](OC)C2)CC(=O)[C@H](C)/C=C(\C)[C@@H](O)[C@@H](OC)C(=O)[C@H](C)C[C@H](C)/C=C/C=C/C=C/1C [CCI-779]
- concentration in the final solution (HPLC assay) ([1]; ethanol, Vitamin E TPGS and water, ethanol less than two percent): 15000 µg/mL

SMILES: Nc1nc(Cl)nc2c1ncn2[C@H]1C[C@H](O)[C@@H](CO)O1 [Cladribine, 2-chlorodeoxyadenosine]
- effect of the added agent on the anti-proliferative rapamycin dose response curve [2]: potentiate the anti-proliferative activity of rapamycin

SMILES: COC[C@H]1OC(=O)/C(=C\N2CCCC2)C2=C(O)C(=O)C3=C([C@H](OC(C)=O)C[C@]4(C)C(=O)CC[C@@H]34)[C@]21C [PX-867]
- inhibition of coronary artery smooth muscle cell proliferation ([3]; PX867 alone, concentration of about 10^−6): close to one hundred percent inhibition
- combination effect with sirolimus on percent inhibition ([3]; PX-867 15-240 nM with various concentrations of sirolimus): strong synergistic effect between PX-867 and sirolimus

SMILES: COc1cc2c(cc1O)CC[C@@H]1[C@@H]2CC[C@]2(C)[C@@H](O)CC[C@@H]12 [Panzem®, 2-methoxyestradiol]
- effect of the added agent on the anti-proliferative rapamycin dose response curve [4]: increases the percent of inhibition of rapamycin alone
- inhibition of human coronary artery smooth muscle cell proliferation in vitro ([4]; agent alone): extremely effective inhibitor
- human coronary artery smooth muscle cell survival (MTS assay) [5]: do not reduce human coronary artery smooth muscle cell survival

SMILES: O=C1CCc2cc(OCCCCc3nnnn3C3CCCCC3)ccc2N1 [cilostazol, 6[4-(1-cyclohexyl-1H-tetrazol-5-yl)-butoxy]-3,4-dihydro-2-(1H)-quinolinone]
- drug remaining in the drug coating [6]: ~80%
- in vitro release from the coating [7]: ~35%

SMILES: COc1cc([C@@H]2c3cc4c(cc3[C@@H](O[C@@H]3O[C@@H]5CO[C@@H](C)O[C@H]5[C@H](O)[C@H]3O)[C@H]3COC(=O)[C@H]23)OCO4)cc(OC)c1O [etoposide]
- effect of the added agent on the anti-proliferative rapamycin dose response curve [2]: potentiate the anti-proliferative activity of rapamycin
- cytotoxicity in cell viability assay ([8]; at concentrations up to ten micromolar): non-cytotoxic

SMILES: COc1c(C)c2c(c(O)c1C/C=C(\C)CCC(=O)O)C(=O)OC2 [mycophenolic acid]
- effect of the added agent on the anti-proliferative rapamycin dose response curve [2]: potentiates the anti-proliferative activity of rapamycin

SMILES: CC(=O)O[C@H]1C(=O)[C@@]2(C)[C@H]([C@H](OC(=O)c3ccccc3)[C@]3(O)C[C@H](OC(=O)[C@H](O)[C@@H](NC(=O)c4ccccc4)c4ccccc4)C(C)=C1C3(C)C)[C@]1(OC(C)=O)CO[C@@H]1C[C@@H]2O [paclitaxel]
- concentration of paclitaxel in a true liquid formulation [9]: up to 2.5 mg/ml
- concentration relative to the solubility of paclitaxel in water [9]: about 1000 fold

SMILES: CO[C@H]1C[C@@H]2CC[C@@H](C)[C@@](O)(O2)C(=O)C(=O)N2CCCC[C@H]2C(=O)O[C@H]([C@H](C)C[C@@H]2CC[C@@H](O)[C@H](OC)C2)CC(=O)[C@H](C)/C=C(\C)[C@@H](O)[C@@H](OC)C(=O)[C@H](C)C[C@H](C)/C=C/C=C/C=C/1C [rapamycin]
- drug remaining in the drug coating [6]: ~80%
- concentration relative to the solubility of sirolimus in water ([1]; 4 mg/ml liquid formulation with PEG 200): about four hundred to about one thousand times higher

SMILES: CC[C@@]1(O)C(=O)OCc2c1cc1n(c2=O)Cc2cc3c(CN(C)C)c(O)ccc3nc2-1 [topotecan]
- effect of the added agent on the anti-proliferative rapamycin dose response curve [4]: potentiate the anti-proliferative activity of rapamycin
- cytotoxicity in cell viability assay ([8]; at concentrations up to one micromolar): non-cytotoxic

SMILES: CC(/C=C/C(=O)NO)=C\[C@@H](C)C(=O)c1ccc(N(C)C)cc1 [trichostatin A]
- IC50 [10]: ~6 nM
- anti-proliferative IC50's (tumor cell lines): low nM range
